The source of these data is patent US20170216297A1, “EFFICIENT INHIBITION OF HSP27” (TECHNISCHE UNIVERSITAET DRESDEN, priority 2014, published 2017).

The target of data set [1] is T1, HSP27 (Homo sapiens, UniProt P04792). The data set is described as follows: Bio-layer interferometry (ForteBio Octet Red 384, biotinylated HSP27 on SSA sensors). It counts as binding. The text has this: Bio-layer interferometry is a technique for detecting biomolecular interactions. It is an analytical technique that measures the optical interference of white light which is reflected by two surfaces: in each case, one surface consists of a layer of the immobilized target protein on the tip of the biosensor and one is an internal reference surface. The binding of ligands to the target protein alters the interference pattern and can be measured in real time.
T1 sequence (P04792 whole entry): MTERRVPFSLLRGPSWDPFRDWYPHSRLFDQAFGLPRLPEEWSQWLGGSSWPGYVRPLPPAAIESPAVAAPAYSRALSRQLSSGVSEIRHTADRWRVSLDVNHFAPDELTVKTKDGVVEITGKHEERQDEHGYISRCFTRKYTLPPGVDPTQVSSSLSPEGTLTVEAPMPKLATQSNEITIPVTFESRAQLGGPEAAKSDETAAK
For the measurements, an instrument of the ForteBio Octet Red 384 brand was used. The target protein HSP27 was biotinylated and bound to the appropriate sensors (SSA). […] The purine derivatives of general formula (I) or (II) pre-identified by means of in silico screening are employed for these measurements in a concentration range (KD) of between 333 μmol/L and 10 nmol/L.
For measurements by bio-layer interferometry, biotinylated HSP27 protein was first bound to Super-Streptavidin sensors (SSA, Fortebio). The loaded sensors were then incubated (“quenched”) with biocytin. As reference, unloaded SSA sensors were incubated with biocytin. In the case of a specific binding to HSP27 of the analyte to be measured, the loaded HSP27 sensor generates a stronger signal (response) than the concurrent reference sensor. After the “baseline” has been established by incubation with the reaction buffer (PBST 0.1% Tween 20 plus 3% DMSO), first the association and then the dissociation of the respective analyte is measured in real time. The analytes were measured in increasing concentrations in each case: 1.23-3.7-11.11-33.33-100-300 μM/l.

Data set [2] has as its system RPMI-8226 cells. Kind of data set: Development of resistance to bortezomib in RPMI-8226 cells. It counts as cell-based. As to the method:
The cell line RPMI-8226 (DMSZ 402) is a “multiple myeloma” cell line and was chosen because bortezomib is employed as a standard therapy for multiple myeloma. RPMI-8226 cells respond to bortezomib, express HSP27 and develop resistance to Velcade. RPMI-8226 cells were seeded at a cell count of 100,000 cells/ml in each case and regularly passaged. […] In contrast, for RPMI 8226 cells that were treated with 30 μmol/L BVDU, a final cell count of 160,000 cells/ml was detected whereas the final cell count for the culture without the addition of an HSP27 inhibitor amounted to 350,000 cells/ml. As a control, RPMI 8226 cells were treated with the respective test substances alone, FIG. 4b.

For data set [3], the target named is T1, HSP27. The data set is described as follows: Capillary electrophoresis of the CS protein precipitates (precipitated citrate synthase as measure of HSP27 inhibition). The class given is biochemical. The conditions noted are these: for times higher activity than BVDU for the inhibition of the HSP27 protein: 120 minutes. On the procedure:
Since the heat-denatured protein aggregates of the citrate synthase from Example 1 are not water-soluble, these can be separated completely from the supernatant by means of centrifugation at room temperature at 16,000×g, 10 min. By using capillary electrophoresis, the compositions of the separated precipitates can be shown and quantified. The relative quantity of protein of precipitated citrate synthase serves as a measure of the efficacy of the test substances.
In each case, 481 nmol/L HSP27 and 1.44 μmol/L citrate synthase in 40 mmol/L HEPES buffer, pH 7.4, were employed. The relative quantity of protein of the precipitated citrate synthase in each case was normalized using a defined quantity of BSA as internal standard. The relative quantity of protein that precipitated when using 750 μmol/L BVDU was set at 1. The other test substances (2 representatives of phenothiazine derivatives of general formula (V), 2 representatives of purine derivatives of formula (I) or (II)) were each employed at a concentration of 10 μmol/L.
Since the heat-denatured protein aggregates of the citrate synthase from Example 2 are not water-soluble, these can be separated completely from the supernatant by means of centrifugation at room temperature at 16,000×g, 10 min. By using capillary electrophoresis, the compositions of the separated precipitates can be shown and quantified. The relative quantity of protein of precipitated citrate synthase serves as a measure of the efficacy of the test substances.
In each case, 481 nM HSP27 and 1.44 μmol/L citrate synthase in 40 mmol/L HEPES buffer, pH 7.4, were employed. The relative quantity of protein of the precipitated citrate synthase in each case was normalized using a defined quantity of BSA as internal standard. The relative quantity of protein that precipitated when using 750 μmol/L BVDU was set at 1. The other test substances (2 representatives of phenothiazine derivatives of general formula (V), 2 representatives of thymine derivatives of formula (I) or (II)) were employed at a concentration of 10 μmol/L in each case.
Otherwise, the experiments were performed as described above: […]

Data set [4] concerns the target T1, HSP27. The data set is described as follows: Spectrophotometric protein aggregation assay (citrate synthase heat denaturation, HSP27 chaperone function). The class given is biochemical. The following applies: 43° C., 500 nm. As to the method:
FIG. 1: a spectrophotometric protein aggregation assay at 43° C., a wavelength of 500 nm and a concentrations of the proteins: 1.44 μmol/L citrate synthase (CS), 481 nmol/L HSP27 (HSP) in a 40 mmol/L HEPES buffer (pH 7.4) during treatment with 14 or 28 μmol/L 2-(3-trichlorovinylphenylamino)-1,9-dihydropurin-6-one (CS+HSP+test substance no. 2), with 750 μmol/L BVDU (CS+HSP+BVDU) and without (CS+HSP; reference);
A known client protein (=substrate on which HSP27 acts as a chaperone) of HSP27 is citrate synthase. Citrate synthase is denatured when the temperature increases to 43° C. This heat denaturation is prevented or delayed by the presence of HSP27 [Jakob U, 1993]. By adding the novel active ingredients, their efficacy can thus be measured through the inhibition of the HSP27 chaperone function.
To determine the activity (i.e. the effect on the aggregation behaviour of the citrate synthase (CS) after thermal incubation) of 2-(3-trichlorovinylphenylamino)-1,9-dihydropurin-6-one in comparison to BVDU, four different batches containing 1.44 μmol/L CS, 481 nmol/L HSP27 (HSP) in a 40 mmol/L HEPES buffer (pH 7.4) were prepared and BVDU (750 μmol/L) or various concentrations of 2-(3-trichlorovinylphenylamino)-1,9-dihydropurin-6-one (14 μmol/L; 28 μmol/L) were added. The samples were then incubated at 43° C. and the aggregation behaviour of the CS was monitored in a spectrometer (PerkinElmer LS55, PerkinElmer Inc.) at a wavelength of 500 nm.
It can be seen from FIG. 1 that the protein citrate synthase (graph CS alone) is denatured by increasing the temperature to 43° C. and forms aggregates. The aggregation is measured in the spectrometer at 500 nm (light scattering by protein aggregates). The presence of HSP27 (HSP) counteracts the aggregation (cf. graph, CS+HSP). Since the addition of the test substances (BVDU and 2-(3-trichlorovinylphenylamino)-1,9-dihydropurin-6-one) inhibits the chaperone function of HSP27, the activity of the respective test substance can be determined by measuring the aggregation behaviour of the CS.

For data set [5] the following is noted: cited from earlier work.
Data set [6] concerns U937 cells. The data set is described as follows: Development of resistance to bortezomib in U937 cells. It counts as cell-based. The conditions noted are these: Examples 17/18: bortezomib 0.1-0.5 ng/ml, plus 0.75 μmol/L inhibitor. On the procedure:
For this purpose, U937 cells (histiocytic lymphoma) were cultured in DMEM culture medium (+10% FCS) at 37° C., 5% CO2 in an H2O-saturated atmosphere. 100,000 cells/ml were seeded and incubated with the cytostatic agent bortezomib (0.1 ng/ml) and the respective test substance (dosage in the current experiment: 1 μM/L acepromazine). The reference substance, BVDU, was employed at a concentration of 30 μM/L. The cells were in each case passaged before the cell count reached 1,000,000 cells/ml. At each passage, 100,000 cells/ml were again seeded and the dose of the cytostatic agent bortezomib was increased stepwise (0.1 ng/mL or 0.05 ng/mL). The concentration of the test substances remained constant. As a result of the stepwise increase in the dosage of the cytostatic agent, resistance developed in the U937 cells. The development of resistance is prevented or inhibited in the case of a positively tested HSP27 inhibitor. The experiments from Example 6 were repeated in the same way, wherein U937 cells (histiocytic lymphoma) are cultured in DMEM culture medium (+10% FCS) at 37° C., 5% CO2 in an H2O— saturated atmosphere. 100,000 cells/ml were seeded and incubated with an initial concentration of 0.2 ng/ml of the cytostatic agent bortezomib and both without an inhibitor and with acepromazine as an HSP27 inhibitor at a concentration of 1 μM/L. The reference substance, BVDU, was employed at a concentration of 30 μM/L. The cells were passaged in each case before the cell count reached 1,000,000 cells/ml. At each passage, 100,000 cells/ml were again seeded and the dose of the cytostatic agent bortezomib was increased stepwise by 0.1 ng/mL. The concentration of the test substance and the reference substance remained constant. As a result of the stepwise increase in the dosage of the cytostatic agent, resistance developed in the U937 cells. The development of resistance is prevented or inhibited in the case of a positively tested HSP27 inhibitor. The cell line U-937 is a histiocytic lymphoma (DSMZ ACC 5). This cell line also responds to treatment with bortezomib, expresses HSP27 and develops resistance to bortezomib. Bortezomib is not the standard therapy for this lymphoma, but is being discussed as a possible therapeutic agent. U-937 cells were seeded with a cell count of 100,000 cells/ml in each case and regularly passaged. […] At the end of the experiment, 70,000 living cells per ml medium could be detected. For the treatment with 30 μmol/L BVDU, a final cell count of 250,000 cells/ml was detected whereas the final cell count in the culture without the addition of an HSP27 inhibitor amounted to 450,000 cells/ml. As a control, U-937 cells were treated with the respective test substances alone, FIG. 10b.

[7] abbreviates: analytes 1.23-300 μM/l, PBST 0.1% Tween 20 plus 3% DMSO, read-out: Dissociation constant KD.
Setting [8] is: bortezomib 0.075-0.275 ng/ml, plus 1 μmol/L inhibitor.
Setting [9] is: 10 μmol/L, 43° C. for 120 minutes, 750 μmol/L BVDU set at 1.
[10] abbreviates: bio-layer interferometry, read-out: KD.
The mark [11] stands for this setting: bortezomib 0.1-0.3 ng/ml, plus 1 μM inhibitor.

The structures appear in SMILES notation. Like-named read-outs stand apart in the source and are kept apart here.

With `O=c1[nH]c(=O)n([C@H]2C[C@H](O)[C@@H](CO)O2)cc1-c1ccccc1` [5-Phenyl-2′-deoxyuridine], in data set [1] (setting [7]), the Kd was 60 µM.

With `Cc1cn(CC=CCNC(=O)C2c3ccccc3Oc3ccccc32)c(=O)[nH]c1=O` [9H-xanthene-9-carboxylic acid [4-(5-methyl-2,4-dioxo-3,4-dihydro-2H-pyrimidin-1-yl)-but-2-enyl]amide], in data set [1] (setting [7]), the Kd was 267 µM. Also, the “development of resistance to bortezomib” value in data set [2] (setting [8]) is listed as “significantly inhibited”. Further, the “Rel. quantity of protein prec. CS” value in data set [3] (setting [9]) stood at 0.65. Besides, the “times higher activity than BVDU for the inhibition of the HSP27 protein” value in data set [3] (10 μmol/L) was determined as 49 times.

Regarding `O=c1[nH]c(=O)n([C@H]2C[C@H](O)[C@@H](CO)O2)cc1/C=C/Br` [BVDU, (E)-5-(2-bromovinyl)-2′-deoxyuridine, reference compound], the “Inhibition of HSP27 chaperone function (CS aggregation)” value in data set [4] (750 μmol/L) is on record as “partially cancels the chaperone function of HSP27”. The “Rel. quantity of protein prec. CS” value in data set [3] (750 μmol/L, 43° C. for 70 minutes, set at 1) amounted to 1; in data set [3] (750 μmol/L, 43° C. for 120 minutes, set at 1), 1. For the same compound, in data set [5] (increased administered dose of 760 mg/day), the tolerability in patients entry was “proved disadvantageous for low-weight patients”. Further, in data set [5] (oral, administered dose of 500 mg/day), the “safety and efficacy in patients” value is “works safely and efficiently”.

For `CN(C)CCCN1c2ccccc2Sc2ccc(Cl)cc21` [Chlorpromazine, reference compound], in data set [1] (setting [10]), the Kd was 770 µM. Further, the “development of resistance to bortezomib” value in data set [2] (bortezomib 0.2-0.4 ng/ml, plus 0.5 μmol/L inhibitor) is “significantly inhibited”.

In the case of `O=c1nc(Nc2cccc(CO)c2)[nH]c2nc[nH]c12` [2-(3-Hydroxymethylphenylamino)-3,7-dihydropurin-6-one], the Kd in data set [1] (setting [7]) was found to be 710 µM.

In the case of `Cc1cn(CC=CCNC(=O)Cc2ccc(-c3ccccc3)cc2)c(=O)[nH]c1=O` [2-biphenyl-4-yl-N-[4-(5-methyl-2,4-dioxo-3,4-dihydro-2H-pyrimidin-1-yl)-but-2-enyl]-acetamide], in data set [1] (setting [7]), the equilibrium dissociation constant (Kd) stood at 424 µM. Further, the “development of resistance to bortezomib” value in data set [2] (setting [8]) was “significantly inhibited”. The “Rel. quantity of protein prec. CS” value in data set [3] (setting [9]) was 0.81. For the same compound, the “times higher activity than BVDU for the inhibition of the HSP27 protein” value in data set [3] (10 μmol/L) stood at 61 times.

For `O=c1[nH]c(Nc2cccc(C(Cl)=C(Cl)Cl)c2)nc2[nH]cnc12` [2-(3-trichlorovinylphenylamino)-1,9-dihydropurin-6-one], the “development of resistance to bortezomib” value in data set [2] (setting [11]) was “significantly inhibited”. In addition, the “Inhibition of HSP27 chaperone function (CS aggregation), effect versus 750 μmol/L BVDU” value in data set [4] (14 μmol/L) is “comparable effect”; in data set [4] (28 μmol/L) it was “significantly more pronounced effect”. The “Rel. quantity of protein prec. CS” value in data set [3] (setting [9]) was determined as 0.71. In addition, the “times higher activity than BVDU for the inhibition of the HSP27 protein” value in data set [3] (10 μmol/L) was 53 times.

In the case of `CCCCc1ccc(Nc2nc3c(ncn3COCCO)c(=O)[nH]2)cc1` [2-(4-butylphenylamino)-9-(2-hydroxyethoxymethyl)-1,9-dihydropurin-6-one], the “development of resistance to bortezomib” value in data set [6] and in data set [2] (setting [11]) was “significantly inhibited” throughout. Also, in data set [1] (setting [10]), the Kd amounted to 15 µM. In data set [3] (10 μmol/L vs 750 μmol/L BVDU, 43° C. for 120 minutes), the “Efficacy compared with BVDU” value worked out at 69.0 x. In data set [3] (setting [9]), the “Rel. quantity of protein prec. CS” value is reported as 0.92. Besides, the “times higher activity than BVDU for the inhibition of the HSP27 protein” value in data set [3] (10 μmol/L) is reported as 69 times.
